Reference: patent publication US20230034359A1, “GENERATION OF MATURE KUPFFER CELLS” (AGENCY FOR SCIENCE, TECHNOLOGY AND RESEARCH, priority 2018, published 2023)
pIC50: −log10 of the molar value.

Tests used:
[1] = test system: pHeps in co-culture with pKCs; assay: Alamar Blue cell viability, pHeps-pKCs co-culture; format: cell-based, human; settings: Homo sapiens, 24 h
Method: (§1) For co-cultures, NL-Mφ, pKCs or iKCs were seeded at a density of 12,000 to 15,000 cells per well on Collagen I-coated 96-well plates. The cells were seeded in their respective media for 24 hours. Following cell attachment, medium was removed and iHeps or pHeps were seeded at a density of 2.5 times the density of the NL-Mφ/pKCs/iKCs in William's E media containing supplemental cocktail B. In some experiments, Advanced DMEM with supplement cocktail B (Media A) was used. The matching hepatocyte mono-culture controls were seeded in the same media and at the same density as the co-cultures.
(§2) Cell viability of differentiated hepatocytes was measured 24 hours after treatment with drugs using Alamar Blue® cell viability assay (Life Technologies) according to manufacturer's instructions. The following drugs were used for the cell viability assays: Acetaminophen, Trovafloxacin and Levofloxacin (all drugs from Sigma). Stock solutions of drugs were prepared in DMSO and then diluted in media to obtain desired working concentrations. Controls were treated with solvent alone (in absence of test compounds) and considered as 100% viability value.

[2] = test system: pHeps in co-culture with iKCs; assay: Alamar Blue cell viability, pHeps-iKCs co-culture; format: cell-based, human; settings: Homo sapiens, 24 h
Method: as §1, §2

[3] = test system: pHeps mono-culture; assay: Alamar Blue cell viability, pHeps mono-culture; format: cell-based, human; settings: Homo sapiens, 24 h
Method: as §1, §2

[4] = test system: iHeps in co-culture with iKCs; assay: in vitro; format: cell-based, human
Method: as §1, §2

[5] = test system: iHeps mono-culture; assay: Alamar Blue cell viability, iHeps mono-culture; format: cell-based, human; settings: Homo sapiens; iHeps mono-culture
Method: as §1, §2

[6] = test system: pHeps in co-culture with NL-Mφ; format: cell-based, human
Method: as §1, §2

[7] = test system: iHeps mono-culture; assay: Cholestasis model, mono-culture control; format: cell-based, human; settings: CPZ treatment
Method: (§3) Cells were incubated with 10 μM Fluorescein diacetate (FDA) and incubated for 30 minutes. The FDA-containing medium was removed and the cells were washed thrice with medium to remove any residual FDA. Images of bile acid accumulation were acquired using Olympus BX-DSU and quantified using Image J software and normalized to untreated control.

[8] = test system: iHeps-iKCs co-culture; assay: Bile acid accumulation (FDA); format: cell-based, human; settings: 100 ng/ml LPS and 10 μM CPZ, 24 hours; versus untreated control
Method: as §3

[9] = test system: iHeps-iKCs co-culture; assay: Cytokine production (ELISA) in cholestasis model; format: cell-based, human; settings: 100 ng/ml LPS and 10 μM CPZ, 24 hours
Method: (§4) Interleukin-6 (IL-6) and Tumor necrosis factor alpha (TNFα) levels in the media were measured using human IL-6 and TNFα enzyme-linked immunosorbent assay (ELISA) kits (Abcam) according to manufacturer's instructions.
as §3

[10] = test system: BSEP, MDR1 and MRP1 mRNA in iHeps-iKCs co-culture; assay: qPCR of bile transporter genes in cholestasis model; format: cell-based, human; settings: CPZ treatment
Method: RNA was isolated using RNeasy Micro-kit (Qiagen, Hilden, Germany), RNA amount was determined using a NanoDrop™ ND-1000 Spectrophotometer (Life Technologies) and RNA was converted to cDNA using iScript cDNA synthesis kit (Bio-Rad Laboratories, Hercules, Calif., USA). 7000 Fast Real-Time PCR System (Applied Biosystems, Foster City, Calif., USA) was used for qPCR using primers commercially obtained from GeneCopoeia, Inc.
(Rockville, Md., USA). The expression levels of all marker genes were normalized to that of glyceraldehyde-3-phosphate dehydrogenase (GAPDH).
as §3

[11] = Alamar Blue cell viability, pHeps-pKCs co-culture; format: cell-based, human; settings: human, pHeps in co-culture with pKCs
Method: as §1, §2

[12] = Alamar Blue cell viability, pHeps mono-culture; format: cell-based, human; settings: human, pHeps mono-culture
Method: as §1, §2

[13] = in vitro; format: cell-based, human; settings: human
Method: as §1, §2

[14] = Alamar Blue cell viability, iHeps mono-culture; format: cell-based, human; settings: human, iHeps mono-culture (stem-cell derived)
Method: as §1, §2

[15] = Alamar Blue cell viability, pHeps-iKCs co-culture; format: cell-based, human; settings: human, pHeps in co-culture with iKCs; 100 μM, pHeps-iKCs co-culture
Method: as §1, §2

[16] = test system: pHeps; assay: LPS-induced cytokine production (ELISA) in pHeps; format: cell-based, human
Method: as §4

[17] = test system: NL-Mφ; assay: LPS-induced cytokine production (ELISA) in NL-Mφ; format: cell-based, human
Method: as §4

[18] = test system: pKCs; assay: LPS-induced cytokine production (ELISA) in pKCs; format: cell-based, human
Method: as §4

[19] = test system: KCs; settings: reference [46], cited from earlier work
[20] = test system: iKCs; assay: LPS-induced cytokine production (ELISA) in iKCs; format: cell-based, human; set-up: TNFα production upon LPS stimulation: unit not given here
Method: as §4

[21] = 100 ng/ml LPS for 16 hours, versus no LPS

CC(=O)Nc1ccc(O)cc1 [APAP, Acetaminophen]
pIC50 [1]: 1.90 | pIC50 [2]: 1.60 | pIC50 [3]: 1.35 | cell viability, donor-matched co-culture versus mono-culture [4]: no significant difference | pIC50 ([4]; Homo sapiens, read-out: IC50 (cell viability)): 1.57 | pIC50 [5]: 1.27 | cell death, co-culture versus pHeps mono-culture [6]: No difference in cell death

CN(C)CCCN1c2ccccc2Sc2ccc(Cl)cc21 [CPZ, Chlorpromazine]
bile acid accumulation, cytokine production and reduction in transporter gene expression [7]: not in mono-culture | bile acid accumulation [8]: Significant bile acid accumulation | IL-6 production, fold compared to untreated control [9]: 4.5 fold | TNFα production, fold compared to untreated control [9]: 6.5 fold | mRNA expression of bile salt export pump (BSEP), fold change to untreated control [10]: 0.3±0.1 folds | mRNA expression of multidrug resistance (MDR1), fold change to untreated control [10]: 0.4±0.2 folds | mRNA expression of multidrug resistance-associated protein 1 (MRP1), fold change to untreated control [10]: 0.5±0.2 folds

C[C@H]1COc2c(N3CCN(C)CC3)c(F)cc3c(=O)c(C(=O)O)cn1c23 [Levofloxacin]
viability at 24 h [11]: > 90% | viability at 24 h [12]: > 90% | viability at 24 h [13]: > 90% | viability at 24 h [14]: > 90%

N[C@@H]1[C@H]2CN(c3nc4c(cc3F)c(=O)c(C(=O)O)cn4-c3ccc(F)cc3F)C[C@@H]12 [Trovafloxacin]
viability at 24 h, 100 µM ([11]; 100 μM, pHeps-pKCs co-culture): 53.8% | viability at 24 h, 100 µM [15]: 55.8% | viability at 24 h, 100 µM ([12]; 100 μM): 73.8% | cell viability, co-culture versus mono-culture [6]: No difference in cell viability

lipopolysaccharide [LPS]
TNFα production upon LPS activation [16]: below detectable levels | fold increase in IL-6 production [17, 21]: 103 folds | fold increase in TNFα production ([17]; 100 ng/ml LPS, level without LPS not detectable): > 1000 folds | IL-6 production upon LPS stimulation [18]: 2018 pg/mL | IL-6 level, LPS-treated ([18]; 100 ng/ml LPS for 16 hours): 3420 pg/million cells/24 h | fold increase in IL-6 production [18, 21]: 25 folds | fold increase in TNFα production [18, 21]: 35 folds | TNFα production upon LPS stimulation ([19]; KCs): 4000 pg/mL | IL-6 production upon LPS stimulation [19]: 800 pg/mL | IL-6 production upon LPS stimulation [20]: 5200 pg/mL | TNFα production upon LPS stimulation [20]: 10,000 | IL-6 level, LPS-treated ([20]; 100 ng/ml LPS for 16 hours): 5260 pg/million cells/24 h | fold increase in IL-6 production [20, 21]: 35 fold | fold increase in TNFα production [20, 21]: 33 folds
